“And” between values parts separate entries of the source, which are not always exact repeats. Equal entries are not always repeated. Ends that are not written are not given here. Peptide text beside a SMILES is read from it.
Columns and labels:
[1] = Intravenous administration of 14C-ISF402: radioactivity in blood and serum; assay type: in vivo, rat
Method: (§1) ^14C-ISF402 (22.7 μCi/mg) was dissolved in water and diluted with unlabelled ISF402 to a concentration of 30 mg/mL for oral and 4.5 mg/mL for intravenous (IV) administration. The day before the experiment 16-18 week female Zucker fa/fa rats (300-400 g) rats were fasted overnight with free access to water before oral administration of ^14C-ISF402 by gavage at 30 mg/kg, 260-263.7 kBq/kg (5.0-5.1 μCi/kg) or IV with 4.5 mg/kg, 103.0-107.3 kBg/kg (1.98-2.06 μCi/kg). After administration of ^14C-ISF402 rats were placed into metabolic cages with free access to food and water.
(§2) Blood samples were collected from the tail vein over the 7 hour time course. Urine was collected at 4 and 12 hours after administration. Whole blood samples (100 μL) were collected and placed into dry ice then stored at −80° C. 50 μL of serum from whole blood was collected into T-MG clotting capiject tubes (Terumo, Elkton, Md.). Sera were separated by centrifuging blood for 90 seconds at 3000×g at room temperature. 100 μL and 50 μL of whole blood and serum, respectively was used for the measurement of radioactivity. The whole blood and serum samples were solubilized with 2 volumes of sample, 2 volumes of 1.4M NaOH and 1 volume of 30 percent hydrogen peroxide. The final volume was made to 1 mL by the addition of distilled water. 4 mL of HiSafe3 Optiphase (PerkinElmer, Boston, Mass.) was added and radioactivity determined in a Wallac Scintillation counter.
(§3) Urine was frozen at −20° C. until analysed for radioactivity. After measuring the total volume of urine, 100 μL of urine and 100 μL ethanol was added to 4 mL scintillant. Samples were left overnight after the addition of scintillant then counted for radioactivity using a Wallac 1409 liquid scintillant counter (PerkinElmer, Boston, Mass.). Radioactivity in all samples was counted several times over the course of 4 weeks until readings were consistent. Radioactivity was expressed as μg equivalent (eq.)/mL. This was calculated from the dpm per mL of sample divided by the specific radioactivity of the peptide administered. The integrity of the radiolabelled peptide in serum and urine samples was determined by reverse phase HPLC as described above.

[2] = Oral administration of 14C-ISF402: radioactivity in blood, serum and urine; assay type: in vivo, rat
Method: as §1, §2, §3

[3] = biological target: T1, Zinc-insulin hexamers (Bos taurus, UniProt P01317); assay: Circular dichroism of zinc-insulin hexamers (dispersal); assay type: biochemical, bovine; settings: Zn-insulin 1 mg/mL; for CD signal at 275 nm of Zn-insulin upon addition: ISF401 1 μL of 100 mM, EDTA 4 mM
T1 construct: Zinc-insulin hexamers were prepared by dissolving bovine insulin containing 0.6% zinc
T1 sequence (P01317 25-54 limits assumed): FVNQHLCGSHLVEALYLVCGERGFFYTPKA
T1 sequence (P01317 85-105 limits assumed): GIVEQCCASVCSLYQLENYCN
Method: Zinc-insulin hexamers were prepared by dissolving bovine insulin containing 0.6% zinc in […] then raising the pH to 7.2-7.4 by addition of NaOH. HEPES buffer was added to give a final solution of 1 mg/mL insulin in 25 mM HEPES buffer (pH 7.2). The CD spectrum of insulin or ISF401 was measured from […] at 20° C. on a Jasco J-810 spectropolarimeter equipped with a PFD 423S/L Peltier type temperature controller. 200 μL of sample was placed in a quartz cuvette, with path length of 1 mm, in the spectropolarimeter and the CD spectrum was recorded. Each spectrum represents an average of 3-5 scans performed at 100 nm/min with a band width of 1 nm. The effect of ethylenediamine tetraacetic acid (EDTA) and ISF401 were measured by adding an aliquot of EDTA (4 mM) or an aliquot of ISF401 (100 mM) and measuring the CD spectrum.
To test dispersal of insulin hexamers by ISF401, circular dichroism (CD) was used.
The CD signal at 275 nm was used to measure the association state of insulin in the presence of ISF401 (1 μL of 100 mM), EDTA ([…] of 4 mM) and deionised water (1 μL).

[4] = biological target: T2, hexameric insulin (Homo sapiens, UniProt P01308); assay: Size exclusion chromatography of hexameric insulin with test peptide; assay type: biochemical
T2 construct: correspond to dimeric insulin (11.8 kDa) and monomeric (5.8 kDa) insulin respectively; purchased Sigma 19278
T2 sequence (P01308 25-54 limits assumed): as the sequence (P01317 25-54 limits assumed) above, with A30T counted along it
T2 sequence (P01308 90-110 limits assumed): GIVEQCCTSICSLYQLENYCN
Method: Size exclusion chromatography was used to study the effect of GHTD-amide (ISF401) on hexameric insulin. Recombinant Human Insulin solution (Sigma 19278) was diluted to 2 mg/mL with 10 mM Tris pH 7.4 and dialysed against 10 mM Tris pH 7.4 (to remove HEPES which absorbs strongly at 214 nm and coelutes with GHTD-amide). Insulin stock solution at 1.5 mg/mL was then prepared by addition of phenol to 4 mM, NaCl to 140 mM and ZnCl2 to 100 μM. Prior to size exclusion chromatography stock insulin was mixed either with water or test peptide to give a final concentration 1 mg/mL each of insulin and test peptide when applicable, and 10 mM Tris pH 7.4, 140 mM NaCl and […] ZnCl2 then incubated at room temperature for 1 hour. Samples of insulin or mixtures (800 μL) were then subjected to size exclusion chromatography using a 1×30 cm Superdex 75 HR 10/30 column at a flow rate of 0.1 mL min^−1 with an eluent comprising Tris-buffered isotonic saline (140 mM NaCl, 10 mM Tris/HCl pH 7.4, 60 μM ZnCl2) at a flow rate of 0.1 mL min^−1, UV detection at 214 nm and 276 nm, and collection of 0.5 mL fractions for protein determination. Protein size standards Aprotinin (6 kDa) and Carbonic Anhydrase (29 kDa) run under the same conditions eluted at 18.85 mL and 14.75 mL respectively. The gel matrix, which has a fractionation range of 3,000 to 70,000 Da, and sample volume loaded were chosen to ensure that the two peptides remained in contact within the gel matrix thereby allowing interaction to occur between the two during the separation process. The concentration of insulin was maintained at 1 mg/mL at pH 7.4 in the presence of 2 Zn^2+/hexamer since it has been shown that at this concentration insulin exists predominantly as Zn^2+-dependent hexamers.

[5] = system: female Zucker fa/fa rats; assay: Intravenous injection of female Zucker fa/fa rats: blood glucose, serum insulin, C-peptide, triglyceride; assay type: in vivo, rat; settings: iv, Lispro insulin 1 U/kg alone, 60 minutes after injection
[6] = IV 4.5 mg/kg, 2 minutes after injection
[7] = IV 4.5 mg/kg, 90 minutes after injection, assuming radioactivity is intact ISF402
[8] = after incubation with test peptide, 276 nm

With `CC(C)[C@H](N)C(=O)N[C@@H](Cc1c[nH]cn1)C(=O)N[C@H](C(=O)N[C@@H](CC(=O)O)C(N)=O)[C@@H](C)O` [14C-ISF402] (H-VHTD-NH2) the “concentration in serum (radioactivity)” value [1, 6] was 24800 ± 300 ng/mL, the “concentration in whole blood (radioactivity)” value [1, 6] was 12000 ± 1000 ng/mL and the “concentration in serum (radioactivity)” value [1, 7] was 8000 ± 2000 ng/mL. The “concentration in whole blood (radioactivity)” value [1, 7] was 3400 ± 1300 ng/mL, the level at 7 h ([1]; rat, in vivo, IV 4.5 mg/kg, 7 hours, read-out: concentration detected at the conclusion of the time course) was 2200 ± 1500 ng/mL and the “integrity of peptide in serum by reverse phase HPLC” value ([1]; serum collected 2 minutes after IV administration) was “intact”. For the same molecule, the “concentration in whole blood and sera” value ([2]; 30 minutes after oral dosing) was “Approximately 4 μg/mL”, the “time to appearance in the circulation after dosing” value ([2]; oral 30 mg/kg) was no more than 30 min and the “concentration in whole blood (radioactivity)” value ([2]; oral 30 mg/kg, 7 hours) was 44200 ± 2500 ng/mL. For the same molecule, the “concentration in sera (radioactivity)” value ([2]; oral 30 mg/kg, after 90 minutes) was 22100 ± 4900 ng/mL, the “concentration in whole blood (radioactivity)” value ([2]; oral 30 mg/kg, after 90 minutes, assuming labelled ISF402 still intact) was 23700 ± 2100 ng/mL and the level at 2 h ([2]; rat, in vivo, 30 mg/kg, 120 minutes after oral dosing, read-out: ISF402 levels in the circulation) was greater than 20000 ng/mL. For the same molecule, the “composition of radioactivity in urine” value ([2]; urine collected over 4 hours after dosing) was “mixture of degraded peptide and intact ISF402”, the “share of radioactivity in urine associated with intact ISF402” value ([2]; urine collected over 12 hours after administration) was 47% and 46% and the “radioactivity retrieved in urine, of the total radioactive ISF402 administered” value ([2]; urine, 12 hours) was 0.97±0.13%. The “share of radioactivity in urine associated with free Valine” value ([2]; urine, 12 hours after administration) was 32%.

For `O=C(O)CN(CCN(CC(=O)O)CC(=O)O)CC(=O)O` [EDTA, ethylenediamine tetraacetic acid, reference compound], the “CD signal at 275 nm of Zn-insulin upon addition” value [3] was “increased”.

For Gly-His-Thr-Asp-NH2 (GHTD-NH2) [ISF401], the “dissociation of hexameric insulin after incubation with test peptide” value ([4]; 1 mg/mL each of insulin and peptide, 1 hour room temperature, monitoring at 276 nm) was “cause the dissociation (disaggregation) of hexamers to dimeric and monomeric forms”, the “elution volume of emerging peak corresponding to dimeric insulin (11.8 kDa)” value [4, 8] was 15.085 mL and the “elution volume of emerging peak corresponding to monomeric (5.8 kDa) insulin” value [4, 8] was 19.045 mL. The “molar excess to insulin at maximum dispersion of insulin hexamers” value [3] was 10 fold and the “CD signal at 275 nm of Zn-insulin upon addition” value [3] was “increased”.

In the case of “Lispro insulin: altered form of human insulin that does not form stable hexamers; Lispro (Humalog), Eli Lilly [reference compound]”, the “reduction in blood glucose” value [5] is reported as 0.90 ± 0.77 mmol/L.
